Columns and labels:
Assay type in all cases: cell-based
M4 muscarinic receptor = target: T1, M4 muscarinic receptor (Homo sapiens, UniProt P08173); assay: Functional mobilization of intracellular calcium (FLIPR) in CHO cells expressing M4; conditions: for EC50: CHO cells expressing M4, FLIPR calcium; for Emax: CHO, 100% = maximum response obtained with the Carbachol control, read-out: M4 Efficacy
T1 construct: expressed in transfected cells; host or cells: CHO (M4-CHO)
T1 sequence (P08173 1-479): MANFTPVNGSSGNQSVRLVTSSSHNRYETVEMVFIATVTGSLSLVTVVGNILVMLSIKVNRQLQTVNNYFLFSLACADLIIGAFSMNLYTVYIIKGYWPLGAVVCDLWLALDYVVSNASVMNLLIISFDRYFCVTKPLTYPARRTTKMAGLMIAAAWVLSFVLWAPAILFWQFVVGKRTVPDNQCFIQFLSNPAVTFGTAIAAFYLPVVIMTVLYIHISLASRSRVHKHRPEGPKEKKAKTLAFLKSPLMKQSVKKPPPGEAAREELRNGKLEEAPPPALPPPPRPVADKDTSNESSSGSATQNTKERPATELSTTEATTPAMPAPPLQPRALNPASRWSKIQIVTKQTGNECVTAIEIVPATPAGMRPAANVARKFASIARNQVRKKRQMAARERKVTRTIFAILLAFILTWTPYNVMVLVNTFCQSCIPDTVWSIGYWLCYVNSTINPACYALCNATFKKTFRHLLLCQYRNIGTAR
Outline: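 Recombinant CHO cells loaded with Fluo-3 AM or Calcium 3 dye in pH 7.4 buffer containing 1 mM probenecid, with 0.5% final DMSO. For agonism, compound is added directly. For inhibition, it is preincubated 15 min, or co-applied, before carbachol at EC80. FLIPR fluorescence (ex 488, em 540 nm) is recorded for 60 s.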

M3 muscarinic receptor = target: T2, M3 muscarinic receptor (Homo sapiens, UniProt P20309); assay: Functional mobilization of intracellular calcium (FLIPR) in CHO cells expressing M3; conditions: for EC50: CHO cells expressing M3, FLIPR calcium; for Emax: CHO, 100% = maximum response obtained with the Carbachol control, read-out: M3 Efficacy
T2 construct: expressed in transfected cells; host or cells: CHO (M3-CHO)
T2 sequence (P20309 whole entry): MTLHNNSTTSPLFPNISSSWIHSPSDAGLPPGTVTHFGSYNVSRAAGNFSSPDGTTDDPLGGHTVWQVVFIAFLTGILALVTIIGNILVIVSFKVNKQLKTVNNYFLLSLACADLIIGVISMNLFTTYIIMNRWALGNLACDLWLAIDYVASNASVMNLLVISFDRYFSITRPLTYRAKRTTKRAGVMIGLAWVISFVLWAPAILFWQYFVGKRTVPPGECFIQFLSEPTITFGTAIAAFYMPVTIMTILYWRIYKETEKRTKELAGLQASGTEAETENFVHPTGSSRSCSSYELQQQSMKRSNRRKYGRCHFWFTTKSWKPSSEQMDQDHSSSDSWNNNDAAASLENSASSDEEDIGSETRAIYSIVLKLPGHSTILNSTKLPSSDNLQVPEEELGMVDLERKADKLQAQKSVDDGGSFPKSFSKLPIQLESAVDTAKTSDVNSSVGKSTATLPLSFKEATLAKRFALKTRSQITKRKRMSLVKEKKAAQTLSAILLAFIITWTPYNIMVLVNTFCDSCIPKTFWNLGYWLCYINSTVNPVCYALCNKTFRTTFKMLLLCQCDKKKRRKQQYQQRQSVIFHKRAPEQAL
Outline: (§1)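 Calcium flux is read on FLIPR over 60 sec at 488/540 nm in muscarinic-receptor CHO lines. Antagonist mode adds carbachol at EC80 after 15 min compound preincubation or with simultaneous co-application. Agonist mode adds compound alone. Cells carry Fluo-3 or Calcium 3 dye in probenecid-containing pH 7.4 buffer, 0.5% DMSO final.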

M1 muscarinic receptor = target: T3, M1 muscarinic receptor (Homo sapiens, UniProt P11229); assay: Functional mobilization of intracellular calcium (FLIPR) in CHO cells expressing M1; conditions: for EC50: CHO cells expressing M1, FLIPR calcium; for Emax: CHO, 100% = maximum response obtained with the Carbachol control, read-out: M1 Efficacy
T3 construct: expressed in transfected cells; host or cells: CHO (M1-CHO)
T3 sequence (P11229 1-460): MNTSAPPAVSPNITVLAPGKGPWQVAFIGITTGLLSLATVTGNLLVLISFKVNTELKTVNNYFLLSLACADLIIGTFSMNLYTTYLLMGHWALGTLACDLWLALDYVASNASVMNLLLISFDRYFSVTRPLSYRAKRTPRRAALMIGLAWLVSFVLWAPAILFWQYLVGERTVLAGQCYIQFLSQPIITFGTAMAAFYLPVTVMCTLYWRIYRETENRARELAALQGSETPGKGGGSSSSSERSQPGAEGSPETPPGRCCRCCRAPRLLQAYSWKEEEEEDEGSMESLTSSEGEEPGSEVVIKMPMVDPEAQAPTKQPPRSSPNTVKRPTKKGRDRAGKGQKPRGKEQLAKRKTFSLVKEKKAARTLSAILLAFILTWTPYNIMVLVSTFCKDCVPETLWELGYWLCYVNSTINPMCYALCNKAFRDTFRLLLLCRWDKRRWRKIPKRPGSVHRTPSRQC
Outline: as §1

M2 muscarinic receptor = target: T4, M2 muscarinic receptor (Homo sapiens, UniProt P08172); assay: Functional mobilization of intracellular calcium (FLIPR) in CHO cells expressing M2; conditions: for EC50: CHO cells expressing M2, FLIPR calcium; for Emax: CHO, 100% = maximum response obtained with the Carbachol control, read-out: M2 Efficacy
T4 construct: expressed in transfected cells; host or cells: CHO (M2-CHO)
T4 sequence (P08172 1-466): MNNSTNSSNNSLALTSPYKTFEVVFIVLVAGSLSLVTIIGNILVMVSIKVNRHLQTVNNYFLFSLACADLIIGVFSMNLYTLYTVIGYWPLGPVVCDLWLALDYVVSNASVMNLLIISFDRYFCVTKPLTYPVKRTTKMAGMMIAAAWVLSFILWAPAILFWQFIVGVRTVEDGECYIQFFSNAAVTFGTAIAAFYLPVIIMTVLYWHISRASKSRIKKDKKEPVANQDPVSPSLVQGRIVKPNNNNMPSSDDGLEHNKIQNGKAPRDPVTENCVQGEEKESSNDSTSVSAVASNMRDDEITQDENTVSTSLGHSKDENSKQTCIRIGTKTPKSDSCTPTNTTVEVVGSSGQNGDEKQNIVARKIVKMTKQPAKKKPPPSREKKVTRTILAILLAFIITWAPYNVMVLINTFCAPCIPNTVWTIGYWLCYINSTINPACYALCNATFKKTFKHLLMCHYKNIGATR
Outline: as §1

Structure (SMILES)	EC50 (M4 muscarinic receptor) [nM]	Emax (M4 muscarinic receptor) [%]	EC50 (M3 muscarinic receptor) [nM]	Emax (M3 muscarinic receptor) [%]	EC50 (M1 muscarinic receptor) [nM]	Emax (M1 muscarinic receptor) [%]	EC50 (M2 muscarinic receptor) [nM]	Emax (M2 muscarinic receptor) [%]
C[C@@H](C(=O)N[C@H]1CCC2(CCN(CCC(C)(C)C)CC2)c2cc(F)ccc21)N1CCCC1=O [compound 106]	< 2000	25 to 100	> 5000	< 25	< 2000	25 to 100	< 2000	25 to 100
CC(=O)N1CCC[C@@H]1C(=O)N[C@@H]1CCC2(CCN(CCC(C)(C)C)CC2)c2ccccc21 [compound 107]	< 2000	25 to 100	> 5000	< 25	2000 to 5000	25 to 100	2000 to 5000	< 25
CC(C)(C)CCN1CCC2(CC[C@H](NC(=O)c3cccnc3)c3ccccc32)CC1 [compound 108]	< 2000	25 to 100	> 5000	< 25	< 2000	25 to 100	< 2000	< 25
C[C@H](C(=O)N[C@H]1CCC2(CCN(CCC(C)(C)C)CC2)c2ccccc21)N1CCCC1=O [compound 109]	< 2000	25 to 100	> 5000	< 25	< 2000	25 to 100	> 5000	< 25
CCN(C(=O)CCC(F)(F)F)[C@H]1CCC2(CCN(CCC(C)(C)C)CC2)c2ccccc21 [compound 110]	< 2000	25 to 100	> 5000	< 25	> 5000	25 to 100	> 5000	< 25
CCN(C(=O)c1cccnc1)[C@@H]1CCC2(CCN(CCC(C)(C)C)CC2)c2ccccc21 [compound 111]	< 2000	25 to 100	> 5000	< 25	> 5000	< 25	> 5000	< 25
C[C@H](C(=O)N[C@@H]1CCC2(CCN(CCC(C)(C)C)CC2)c2ccccc21)N1CCCCC1=O [compound 113]	< 2000	25 to 100	> 5000	< 25	> 5000	< 25	> 5000	< 25
CCn1cc(C(=O)N[C@H]2CCC3(CCN(CCC(C)(C)C)CC3)c3ccccc32)cn1 [compound 115]	< 2000	25 to 100	> 5000	< 25	< 2000	25 to 100	< 2000	25 to 100
CCN(C(=O)[C@@H](C)OC)[C@H]1CCC2(CCN(CCC(C)(C)C)CC2)c2ccccc21 [compound 116]	< 2000	25 to 100	> 5000	< 25	> 5000	25 to 100	> 5000	< 25
CC(C)(C)CCN1CCC2(CC1)CC(F)(F)C(=O)c1ccccc12 [compound 117]	< 2000	25 to 100	> 5000	< 25	< 2000	25 to 100	< 2000	25 to 100
Cn1cncc1C(=O)N[C@@H]1CCC2(CCN(CCC(C)(C)C)CC2)c2ccccc21 [compound 118]	< 2000	25 to 100	> 5000	< 25	2000 to 5000	25 to 100	> 5000	< 25
CC(C)(C)CCN1CCC2(CC[C@H](NC(=O)C3CC3)c3ccc(F)cc32)CC1 [compound 119]	< 2000	25 to 100	> 5000	< 25	< 2000	25 to 100	< 2000	25 to 100
CC(C)(C)CCN1CCC2(CC1)CC(F)(F)C(O)c1ccccc12 (centres unmarked) [compound 120]	< 2000	25 to 100	> 5000	< 25	< 2000	25 to 100	< 2000	25 to 100
CC(=O)N1CCCC(C(=O)N[C@H]2CCC3(CCN(CCC(C)(C)C)CC3)c3ccccc32)C1 (some centres unmarked) [compound 121]	< 2000	25 to 100	> 5000	< 25	< 2000	25 to 100	> 5000	< 25
CC(=O)N(C1CC1)C1CCC2(CCN(CCC(C)(C)C)CC2)c2ccccc21 (centres unmarked) [compound 122]	< 2000	25 to 100	> 5000	< 25	< 2000	25 to 100	> 5000	< 25
CC(=O)N(C)[C@H]1CCC2(CCN(CCC(C)(C)C)CC2)c2ccccc21 [compound 123]	< 2000	25 to 100	> 5000	< 25	< 2000	25 to 100	> 5000	< 25
CC(C)(C)CCN1CCC2(CC[C@H](NC(=O)CCN3CCCC3=O)c3ccccc32)CC1 [compound 124]	< 2000	25 to 100	> 5000	< 25	< 2000	25 to 100	< 2000	25 to 100
CC(C)CCN1CCC2(CC[C@H](NC(=O)C3CC3)c3ccccc32)CC1 [compound 125]	< 2000	25 to 100	> 5000	< 25	< 2000	25 to 100	2000 to 5000	< 25
CC(C)[C@@H](C(=O)N[C@@H]1CCC2(CCN(CCC(C)(C)C)CC2)c2ccccc21)N1CCCC1=O [compound 126]	< 2000	25 to 100	> 5000	< 25	> 5000	< 25	> 5000	< 25
CCN(C(=O)CCC(=O)NC)[C@H]1CCC2(CCN(CCC(C)(C)C)CC2)c2ccccc21 [compound 127]	< 2000	25 to 100	> 5000	< 25	< 2000	25 to 100	2000 to 5000	< 25
CCN(C(=O)c1cncn1C)[C@H]1CCC2(CCN(CCC(C)(C)C)CC2)c2ccccc21 [compound 128]	< 2000	25 to 100	> 5000	< 25	2000 to 5000	25 to 100	> 5000	< 25
Cn1cc(C(=O)N[C@@H]2CCC3(CCN(CCC(C)(C)C)CC3)c3ccccc32)cn1 [compound 129]	< 2000	25 to 100	> 5000	< 25	> 5000	< 25	> 5000	< 25

From patent US8003660B2, “Modulators of muscarinic receptors” (Vertex Pharmaceuticals Incorporated, priority 2006, dated 2011)
